Results published in US10047102B2, “Pyridyl-triazabicycles” (Hoffmann-La Roche Inc., priority 2014, dated 2018).

Biological target: T1, BACE1 (Homo sapiens, UniProt P56817)
T1 construct: endogenous in cells; host or cells: HEK293 APP cells
Assay: Cellular Aβ-lowering assay (Abeta 40 AlphaLISA, HEK293 APP cells)
Assay type: cell-based
Conditions: Aβ 40 in culture supernatant by AlphaLISA, 18-20 hrs incubation at 37° C., 1% DMSO
Description: The compounds were investigated in accordance with the test given hereinafter.
The Abeta 40 AlphaLISA Assay can be used. The HEK293 APP cells were seeded in 96 well Microtiter plates in cell culture medium (Iscove's, plus 10% (v/v) fetal bovine serum, penicillin/streptomycin) to about 80% confluency and the compounds were added at a 3× concentration in ⅓ volume of culture medium (final DMSO concentration was kept at 1% v/v). After 18-20 hrs incubation at 37° C. and 5% CO2 in a humidified incubator, the culture supernatants were harvested for the determination of Aβ 40 concentrations using Perkin-Elmer Human Amyloid beta 1-40 (high specificity) Kit (Cat# AL275C).
In a Perkin-Elmer White Optiplate-384 (Cat# 6007290), 2 ul culture supernatants were combined with 2 μl of a 10× AlphaLISA Anti-hAβAcceptor beads+Biotinylated Antibody Anti-Aβ 1-40 Mix (50 μg/mL/5 nM). After 1 hour room temperature incubation, 16 μl of a 1.25× preparation of Streptavidin (SA) Donor beads (25 μg/mL) were added and incubated for 30 minutes in the Dark. Light Emission at 615 nm was then recorded using EnVision-Alpha Reader. Levels of Aβ 40 in the culture supernatants were calculated as percentage of maximum signal (cells treated with 1% DMSO without inhibitor). The IC50 values were calculated using the Excel XLfit software.

T1 sequence (P56817 46-501): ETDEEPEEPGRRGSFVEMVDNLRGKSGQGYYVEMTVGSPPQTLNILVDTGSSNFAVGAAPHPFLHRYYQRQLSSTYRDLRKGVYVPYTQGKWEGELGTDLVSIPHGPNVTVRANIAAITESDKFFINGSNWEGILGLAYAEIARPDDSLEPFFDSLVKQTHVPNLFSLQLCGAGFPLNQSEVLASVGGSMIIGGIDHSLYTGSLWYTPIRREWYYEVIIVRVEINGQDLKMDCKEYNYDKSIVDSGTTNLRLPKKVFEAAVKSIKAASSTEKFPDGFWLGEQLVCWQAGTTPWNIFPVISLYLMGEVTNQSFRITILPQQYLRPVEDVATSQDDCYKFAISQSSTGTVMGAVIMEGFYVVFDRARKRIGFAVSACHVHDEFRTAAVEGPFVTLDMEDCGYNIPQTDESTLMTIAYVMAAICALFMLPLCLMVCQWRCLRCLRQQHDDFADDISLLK

Row | Structure (SMILES) | IC50 [nM]
1 | N#Cc1ccc(C(=O)Nc2ccc(F)c([C@]3(C(F)F)C[S@]4(=O)=NCCCCN4C(N)=N3)n2)nc1 [Example 6, N-[6-[(1S,10S)-8-Amino-10-(difluoromethyl)-1-oxo-1λ^6-thia-2,7,9-triazabicyclo[5.4.0]undeca-1,8-dien-10-yl]-5-fluoropyridin-2-yl]-5-cyanopyridine-2-carboxamide] | 78
2 | N#Cc1ccc(C(=O)Nc2ccc(F)c([C@]3(C(F)F)C[S@@]4(=O)=NCCCCN4C(N)=N3)n2)nc1 [Example 7, N-[6-[(1R,10S)-8-Amino-10-(difluoromethyl)-1-oxo-1λ^6-thia-2,7,9-triazabicyclo[5.4.0]undeca-1,8-dien-10-yl]-5-fluoropyridin-2-yl]-5-cyanopyridine-2-carboxamide] | 147
